Values quoted from earlier work as cited in patent US20220202682A1, “INCREASING THE STABILITY OF AGENTS FOR THE TREATMENT OF KERATINOUS MATERIAL” (Henkel AG & Co. KGaA, priority 2019, published 2022).

Settings: 25° C.
For `O=S(=O)([O-])c1ccc(N=Nc2c(O)ccc3ccccc23)cc1.[Na+]` [Acid Orange 7, sodium salt of 4-[(2-hydroxy-1-naphthyl)azo]benzene sulphonate], the solubility in water is listed as “more than 7 g/L”.
In the case of `Nc1cc(S(=O)(=O)[O-])cc2cc(S(=O)(=O)[O-])c(N=Nc3ccccc3)c(O)c12.[Na+].[Na+]` [Acid Red 33, disodium salt of 5-amino-4-hydroxy-3-(phenylazo)-naphthalene-2,7-disulphonate], the solubility in water is given as 2500 µg/mL.
In the case of `O=C([O-])c1c(Cl)c(Cl)c(Cl)c(Cl)c1-c1c2c(Br)cc(=O)c(Br)c-2oc2c(Br)c(O)cc(Br)c12.O=C([O-])c1c(Cl)c(Cl)c(Cl)c(Cl)c1-c1c2c(Br)cc(=O)c(Br)c-2oc2c(Br)c(O)cc(Br)c12.[Na+].[Na+]` [Acid Red 92, disodium salt of 3,4,5,6-tetrachloro-2-(1,4,5,8-tetrabromo-6-hydroxy-3-oxoxanthen-9-yl)benzoic acid], the solubility in water is listed as “greater than 10 g/L”.
For `O=C([O-])C1=NN(c2ccc(S(=O)(=O)[O-])cc2)C(=O)C1N=Nc1ccc(S(=O)(=O)[O-])cc1.[Na+].[Na+].[Na+]` (stereo not shown) [Acid Yellow 23, trisodium salt of 4,5-dihydro-5-oxo-1-(4-sulfophenyl)-4-((4-sulfophenyl)azo)-1H-pyrazole-3-carboxylic acid], the “solubility in water” value is listed as “highly soluble”.
